1 molecule from patent publication US20190351012A1, “TARGETING OF INTERFERON-STIMULATED GENE EXPRESSION TO TREAT INTERFERONOPATHIES” (New York University, priority 2018, published 2019) can be followed below.

“Also recorded” adds a separate entry of the source.

This experiment concerns BRD4. In words: Nuclear BRD4 distribution (soluble versus chromatin-bound) by differential salt extraction and western blot in HeLa cells. Type of experiment: cell-based, human. To be noted: western blot. The procedure: FIG. 5. BRD4 is required for ISG transcription. (A) HeLa cells were either left untreated or treated with IFN-α for 1 h in presence or absence of JQ-1 or HMBA. Using primers spanning intron-exon junctions, nuclear pre-mRNA for ISG54 and γ-actin were quantified by real-time RT-PCR and normalized to GAPDH mRNA. (B) Control and BRD4 KD cells were either left untreated or treated with IFN-α. ISG56 and BRD4 mRNA were quantified using real-time RT-PCR and normalized to GAPDH mRNA abundance. (C) HEK293T cells were transfected with pcDNA3 (Ctl) or Brd4 expression constructs along with a luciferase reporter driven by the ISG54 promoter. 24 h after transfection, cells were either left untreated or treated with IFN-α in the absence or presence of TSA before being assayed for luciferase activity (left panel). HEK293T cells were transfected with pcDNA3 (Ctl) or Brd4 expression constructs along with a luciferase reporter driven by the constitutive RSV promoter and assayed for luciferase activity after 36 h (right panel). (D) Hela cells were either left untreated or treated with IFN-α for 2 h in presence or absence of TSA or Anacardic acid (AA). Nuclear proteins were extracted as a soluble fraction and a chromatin bound fraction and analyzed by western blotting using anti-BRD4, H4-AcK5 and actin antibodies. […] (F) ChIP assays were performed with antibodies against BRD4 and recovered ISG56, Mx1 and IRF9 TSS spanning sequences were quantified by real-time PCR, normalized to input, and represented as fold enrichment over the untreated sample.
BRD4 is recruited to active promoters along with polymerase, and it associates with elongating polymerase to affect transcriptional elongation. […] Cells were treated with IFN in the presence or absence of TSA, and nuclear BRD4 was quantified in soluble versus chromatin-bound fractions by differential salt extraction (FIG. 5D). Most BRD4 was detected in the soluble nucleoplasm fraction in untreated or IFN-treated cells (FIG. 5D, compare lanes 1 and 2 with 5 and 6). […]
Nuclear extracts were prepared and analyzed by immunoblotting as follows. […]
In general terms: In western blotting, separated proteins are transferred to a membrane and probed.

Consider `CC(/C=C/C(=O)NO)=C\[C@@H](C)C(=O)c1ccc(N(C)C)cc1` [TSA, Trichostatin A], for which the “histone acetylation (acetylated H4K5)” value is on record as “large increase”. Where the note is “IFN-α 2 h”, the “soluble nuclear BRD4” value is on record as “undetectable; also recorded: depletion”.
